Experimental data taken from patent publication EP1984353B1, “AURORA KINASE MODULATORS AND METHOD OF USE” (Amgen, Inc, priority 2006, dated 2007).
Where two headings read alike, the source gives them in different places.

Columns and labels:
AuroraB = target: T1, AuroraB (Homo sapiens, UniProt Q96GD4); experiment: AuroraB Homogeneous Time Resolved Fluorescent (HTRF) kinase assay; assay type: biochemical; settings: average, read-out: AurB_ _IC50_IP (Avg)
T1 construct: 20 µL of AuroraB FL His; His
Protocol: AuroraB-Homogeneous Time Resolved Fluorescent (HTRF) Kinase Assay:
The AuroraB HTRF assay begins with AuroraB in the presence of ATP phosphorylating the biotinylated peptide Histone H3. The reaction incubates for about 90 min. the reaction is quentched by addition of detection reagents, which stop the reaction by diluting out the enzyme and chelating the metals due to the presence of EDTA. After addition, the assay is incubated for about 60 min to allow detection reagents to equilibrate.
The AuroraB HTRF assay comprises 1 µL of compound in 100% DMSO, 20 µL of ATP and biotinylated Histone H3, and 20 µL of AuroraB FL His for a final volume of 41 µL. The final concentration of Histone H3 is 0.1 µM. The final concentration of ATP is 23 µM (Km(app) = 23 µM+/-2.6) and the final concentration of AuroraB is 400 pM. Buffer conditions are as follows: 50mM HEPES pH 7.5, 5mM NaCl, 0.5mM MgCl, 0.5mM MnCl, 2mM DTT, 0.05% BSA.
(§1) The assay is quenched and stopped with 160 µL of detection reagent. Detection reagents are as follows: Buffer made of 50mM Tris, pH 7.5, 100mM NaCl, 3mM EDTA, 0.05% BSA, 0.1% Tween20. Added to this buffer prior to reading is Steptavidin allophycocyanin (SA-APC) at a final conc in the assay of 0.001 mg/mL, and europilated anti-phosphoHistoneH3 Ab (Eu-anti-HisH3) at a final conc of 0.064 nM.
The assay plate is read in either a Discovery or a RubyStar. The eu-anti-HisH3 is excited at 320 nm and emits at 615 nm to excite the SA-APC which in turn emits at 655 nm. The ratio of SA-APC at 655 nm (excited due to close proximity to the Eu-anti-HisH3 because of phosphorylation of the peptide) to free Eu-anti-HisH3 at 615 nm will give substrate phosphorylation.

AuroraA-TPX2 = target: T2, AuroraA-TPX2 (Homo sapiens, UniProt O14965); experiment: AuroraA-TPX2 Homogeneous Time Resolved Fluorescent (HTRF) kinase assay; assay type: biochemical; settings: average, read-out: AurA/TP X2_ IC50_IP (Avg)
T2 construct: 20 µL of AuroraA-TPX2 KD GST; GST
T2 sequence (O14965 133-383 limits assumed): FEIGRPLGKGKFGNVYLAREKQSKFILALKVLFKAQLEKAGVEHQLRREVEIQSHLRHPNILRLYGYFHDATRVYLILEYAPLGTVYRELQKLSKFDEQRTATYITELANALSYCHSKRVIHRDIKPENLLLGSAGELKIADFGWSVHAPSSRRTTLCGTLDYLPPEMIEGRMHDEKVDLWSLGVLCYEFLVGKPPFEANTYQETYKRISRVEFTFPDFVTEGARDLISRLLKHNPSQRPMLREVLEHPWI
T2 sequence (Q9ULW0 1-43 partner limits assumed): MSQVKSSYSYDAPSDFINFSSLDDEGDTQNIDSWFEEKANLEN
Protocol: AuroraA-TPX2-Homogeneous Time Resolved Fluorescent (HTRF) Kinase Assay:
The Aurora-A HTRF assay begins with Aurora-A in the presence of ATP phosphorylating the biotinylated peptide PLK. The reaction incubates for about 120 min. Detection reagents are added to quench the reaction. These agents stop the reaction by diluting out the enzyme and chelating the metals due to the presence of EDTA. After addition, the assay is incubated overnight to allow the detection reagents to equilibrate.
The final concentration of PLK is about 1 µM. […] Buffer conditions are as follows: 60mM HEPES pH 7.5, 25mM NaCl, 10mM MgCl, 2mM DTT, 0.05% BSA.
as §1, with “µL,” for “µL”, “0.0005” for “0.001”, “anti-phosphoPLK” for “anti-phosphoHistoneH3”, “(Eu-anti-PLK)” for “(Eu-anti-HisH3)”, “0.02” for “0.064”
The assay plate is read in either a Discovery or a RubyStar. The eu-anti-PLK is excited at 320 nm and emits at 615 nm to excite the SA-APC which in turn emits at 655 nm.

[1] = given as numbers, unit inferred

T1 sequence (Q96GD4 whole entry): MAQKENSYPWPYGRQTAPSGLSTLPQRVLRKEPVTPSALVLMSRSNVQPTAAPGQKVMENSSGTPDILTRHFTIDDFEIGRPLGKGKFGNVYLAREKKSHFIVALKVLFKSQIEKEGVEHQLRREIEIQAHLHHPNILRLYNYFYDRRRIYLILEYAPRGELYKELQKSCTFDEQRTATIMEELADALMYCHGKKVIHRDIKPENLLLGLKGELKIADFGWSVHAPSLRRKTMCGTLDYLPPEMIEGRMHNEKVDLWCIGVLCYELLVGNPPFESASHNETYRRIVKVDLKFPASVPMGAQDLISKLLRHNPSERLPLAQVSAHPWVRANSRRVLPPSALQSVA

| SMILES | IC50 (AuroraB; given as class symbols) | IC50 (AuroraA-TPX2; given as class symbols) | IC50 (AuroraB; [1]) | IC50 (AuroraA-TPX2; [1]) |
| --- | --- | --- | --- | --- |
| COc1cccc(-c2nnc(Nc3ccc(Oc4ncccc4-c4ccnc(N)n4)cc3)c3ccccc23)n1 [compound 292, N-(4-((3-(2-amino-4-pyrimidinyl)-2-pyridinyl)oxy)phenyl)-4-(6-(methyloxy)-2-pyridinyl)-1-phthalazinamine] | ≤ 100 nM | ≤ 100 nM |  |  |
| c1ccc(-c2nnc(Nc3ccc(Oc4ncccc4-c4ccnc(NCCCN5CCC5)n4)cc3)c3ccccc23)cc1 [compound 295, N-(4-((3-(2-((3-(1-azetidinyl)propyl)amino)-4-pyrimidinyl)-2-pyridinyl)oxy)phenyl)-4-phenyl-1-phthalazinamine] | ≤ 100 nM | 100 to 500 nM |  |  |
| CC(=O)OCc1cccc(-c2nnc(Nc3ccc(Oc4ncccc4-c4ccnc(N)n4)cc3)c3ccccc23)n1 [compound 296, (6-(4-((4-((3-(2-amino-4-pyrimidinyl)-2-pyridinyl)oxy)phenyl)amino)-1-phthalazinyl)-2-pyridinyl)methyl acetate] | ≤ 100 nM | ≤ 100 nM |  |  |
| Nc1nccc(-c2cccnc2Oc2ccc(Nc3nnc(-c4cccc(CO)n4)c4ccccc34)cc2)n1 [compound 297, (6-(4-((4-((3-(2-amino-4-pyrimidinyl)-2-pyridinyl)oxy)phenyl)amino)-1-phthalazinyl)-2-pyridinyl)methanol] | ≤ 100 nM | ≤ 100 nM |  |  |
| c1ccc(-c2nnc(Nc3ncc(Oc4ncccc4-c4ccncc4)cn3)c3ccccc23)cc1 [compound 311, N-(5-(3,4'-bipyridin-2-yloxy)-2-pyrimidinyl)-4-phenyl-1-phthalazinamine] | 500 to 2500 nM | 500 to 2500 nM |  |  |
| Cc1csc(-c2nnc(Nc3ccc(Oc4ncccc4-c4c[nH]nc4N)c(F)c3)c3ccccc23)n1 [compound 312, N-(4-((3-(3-amino-1H-pyrazol-4-yl)-2-pyridinyl)oxy)-3-fluorophenyl)-4-(4-methyl-1,3-thiazol-2-yl)-1-phthalazinamine] | ≤ 100 nM | ≤ 100 nM |  |  |
| Nc1nccc(-c2cccnc2Oc2ccc(Nc3nnc(-c4ccc(Cl)cc4)c4ccccc34)cn2)n1 [compound 315, N-(6-((3-(2-amino-4-pyrimidinyl)-2-pyridinyl)oxy)-3-pyridinyl)-4-(4-chlorophenyl)-1-phthalazinamine] | ≤ 100 nM | ≤ 100 nM |  |  |
| CS(=O)(=O)c1cccc(-c2nnc(Nc3ccc(Oc4ncccc4-c4ccnc(N)n4)cc3)c3ccccc23)c1 [compound 316, N-(4-((3-(2-amino-4-pyrimidinyl)-2-pyridinyl)oxy)phenyl)-4-(3-(methylsulfonyl)phenyl)-1-phthalazinamine] | ≤ 100 nM | ≤ 100 nM |  |  |
| COc1cccc(-c2nnc(Nc3ccc(Oc4ncccc4-c4c[nH]nc4N)cc3)c3ccccc23)c1 [compound 317, N-(4-((3-(3-amino-1H-pyrazol-4-yl)-2-pyridinyl)oxy)phenyl)-4-(3-(methyloxy)phenyl)-1-phthalazinamine] | ≤ 100 nM | ≤ 100 nM |  |  |
| CS(=O)(=O)c1cccc(-c2nnc(Nc3ccc(Oc4ncccc4-c4ccnc(N)n4)nc3)c3ccccc23)c1 [compound 318, N-(6-((3-(2-amino-4-pyrimidinyl)-2-pyridinyl)oxy)-3-pyridinyl)-4-(3-(methylsulfonyl)phenyl)-1-phthalazinamine] |  |  | 5.6 nM | 23.8 nM |
| COc1ccc(-c2nnc(Nc3ccc(Oc4ncccc4-c4ccnc(N)n4)nc3)c3ccccc23)cc1 [compound 319, N-(6-((3-(2-amino-4-pyrimidinyl)-2-pyridinyl)oxy)-3-pyridinyl)-4-(4-(methyloxy)phenyl)-1-phthalazinamine] | ≤ 100 nM | ≤ 100 nM |  |  |
| CCOc1ccc(-c2nnc(Nc3ccc(Oc4ncccc4-c4ccnc(N)n4)cc3)c3ccccc23)cc1 [compound 321, N-(4-((3-(2-amino-4-pyrimidinyl)-2-pyridinyl)oxy)phenyl)-4-(4-(ethyloxy)phenyl)-1-phthalazinamine] | ≤ 100 nM | ≤ 100 nM |  |  |
| CN(C)C1CCN(CCCNc2nccc(-c3cccnc3Oc3ccc(Nc4nnc(-c5ccccc5)c5ccccc45)cc3)n2)C1 (stereo not drawn) [compound 324, N-(4-((3-(2-((3-(3-(dimethylamino)-1-pyrrolidinyl)propyl)amino)-4-pyrimidinyl)-2-pyridinyl)oxy)phenyl)-4-phenyl-1-phthalazinamine] | ≤ 100 nM | ≤ 100 nM |  |  |
| CC1CN(CCCNc2nccc(-c3cccnc3Oc3ccc(Nc4nnc(-c5ccccc5)c5ccccc45)cc3)n2)CC(C)O1 (stereo not drawn) [compound 326, N-(4-((3-(2-((3-(2,6-dimethyl-4-morpholinyl)propyl)amino)-4-pyrimidinyl)-2-pyridinyl)oxy)phenyl)-4-phenyl-1-phthalazinamine] | ≤ 100 nM | ≤ 100 nM |  |  |

Second part, the compound after the results:

| IC50 (AuroraB; given as class symbols) | IC50 (AuroraA-TPX2; given as class symbols) | IC50 (AuroraB; [1]) | IC50 (AuroraA-TPX2; [1]) | SMILES |
| --- | --- | --- | --- | --- |
| ≤ 100 nM | ≤ 100 nM |  |  | COc1cccc(-c2nnc(Nc3ccc(Oc4ncccc4-c4ccnc(N)n4)nc3)c3ccccc23)n1 [compound 293, N-(6-((3-(2-amino-4-pyrimidinyl)-2-pyridinyl)oxy)-3-pyridinyl)-4-(6-(methyloxy)-2-pyridinyl)-1-phthalazinamine] |
| ≤ 100 nM | ≤ 100 nM |  |  | ONc1nccc(-c2cccnc2Oc2ccc(Nc3nnc(-c4ccccc4)c4ccccc34)cc2)n1 [compound 310, N-(4-((3-(2-(hydroxyamino)-4-pyrimidinyl)-2-pyridinyl)oxy)phenyl)-4-phenyl-1-phthalazinamine] |
| ≤ 100 nM | ≤ 100 nM |  |  | Nc1nccc(-c2cccnc2Oc2ccc(Nc3nnc(-c4ccccc4)c4ccsc34)cn2)n1 [compound 313, N-(6-((3-(2-amino-4-pyrimidinyl)-2-pyridinyl)oxy)-3-pyridinyl)-4-phenylthieno[2,3-d]pyridazin-7-amine] |
|  |  | 2.4 nM | 4.5 nM | Nc1n[nH]cc1-c1cccnc1Oc1ccc(Nc2nnc(-c3ccccc3)c3ccccc23)cc1F [compound 314, N-(4-((3-(3-amino-1H-pyrazol-4-yl)-2-pyridinyl)oxy)-3-fluorophenyl)-4-phenyl-1-phthalazinamine] |
| ≤ 100 nM | ≤ 100 nM |  |  | COc1ccc(-c2nnc(Nc3ccc(Oc4ncccc4-c4ccnc(N)n4)cc3)c3ccccc23)cc1 [compound 320, N-(4-((3-(2-amino-4-pyrimidinyl)-2-pyridinyl)oxy)phenyl)-4-(4-(methyloxy)phenyl)-1-phthalazinamine] |
| ≤ 100 nM | ≤ 100 nM |  |  | CCOc1ccccc1-c1nnc(Nc2ccc(Oc3ncccc3-c3ccnc(N)n3)cc2)c2ccccc12 [compound 322, N-(4-((3-(2-amino-4-pyrimidinyl)-2-pyridinyl)oxy)phenyl)-4-(2-(ethyloxy)phenyl)-1-phthalazinamine] |
| ≤ 100 nM | 100 to 500 nM |  |  | CN1CCN(CCCNc2nccc(-c3cccnc3Oc3ccc(Nc4nnc(-c5ccccn5)c5ccccc45)cc3)n2)CC1 [compound 323, N-(4-((3-(2-((3-(4-methyl-1-piperazinyl)propyl)amino)-4-pyrimidinyl)-2-pyridinyl)oxy)phenyl)-4-(2-pyridinyl)-1-phthalazinamine] |
